Measurements from patent US20100105103A1, “ALCOHOL TOLERANT ESCHERICHIA COLI AND METHODS OF PREPARATION THEREOF” (NATIONAL TAIWAN UNIVERSITY, priority 2008, published 2010).

Key:
[1] = test system: E. coli JH007 (ydhF- mutant overexpressing PhoH); test: Growth curve of JH007 strain with various concentrations of alcohols (OD595); format: cell-based, Escherichia coli; conditions: for alcohol concentration at which growth of JH007 was inhibited: JH007, IPTG-induced, LB medium, 37° C., OD595
Description: (§1) After 2 h of induction, the cultures were diluted to 0.35 OD595 in a fresh LB medium supplemented with kanamycin and 50 μg/ml of chloraphenicol, with the addition of 0-18% ethanol, 0-5% 1-propanol, 0-5% iso-propanol, 0-7% 1-butanol, and 0-7% iso-butanol in triplicate.
Referring to FIG. 7, cell growth condition of JH007 strain was monitored with OD595 with the changes of cell turbidities.

[2] = test system: E. coli JH017 (potG- mutant overexpressing YqhD); test: Growth curve of JH017 strain with various concentrations of alcohols (OD595); format: cell-based, Escherichia coli
Description: as §1
(§2) Growth of JH016 was inhibited by 1-butanol at concentrations at least 2.5% (v/v), isobutanol at least 4%, 1-propanol at least 5%, isopropanol at least 5%, or ethanol at least 10%. And the growth of JH017 was inhibited by 1-butanol at concentrations at least 2% (v/v), isobutanol at least 3.5%, 1-propanol at least 5%, isopropanol at least 5%, or ethanol at least 12%. The abovementioned concentration of alcohol would for sure inhibit the growth of wild type E. coli.

[3] = test system: E. coli JH016 (potG- mutant overexpressing Hmp); test: Growth curve of JH016 strain with various concentrations of alcohols (OD595); format: cell-based, Escherichia coli; conditions: for alcohol concentration at which growth of JH016 was inhibited: JH016, OD595
Description: as §1, §2

[4] = test system: E. coli wild-type strain BW25113; conditions: wild type E. coli BW25113, LB medium, OD600
Description: E. coli wild-type strain BW25113 was cultured overnight and then inoculated into a fresh LB medium containing 0-10% (v/v) of 1-butanol. Cells were cultivated with shaking and the optical density at 600 nm was measured every 15 minutes.

E. coli JH007 = conditions: JH007, 2% v/v 1-butanol, 4 h, IPTG-induced vs uninduced
Description: These 18 strains were cultivated overnight then inoculated into LB media supplemented with 30 μg/ml of kanamycin and 50 μg/ml of chloraphenicol. IPTG were added into the media at the final concentration of 0.1 mM. […] Cells were incubated at 37° C. with shaking and the optical density was measured at the beginning and after 4 h. The survival rates were calculated using the following formula.
Survival rate=difference of OD595 between mutants with IPTG induced (4 h-0 h)/difference of OD595 between mutants without IPTG induced (4 h-0 h)×100%

wild type E. coli = conditions: conventional fermentation process; cited from earlier work

Molecule | alcohol concentration at which growth of JH007 was inhibited [1] | alcohol concentration at which growth of JH017 was inhibited [2] | tolerance of ethanol concentration (up to) ([3]; JH016) | alcohol concentration at which growth of JH016 was inhibited [3] | concentration of 1-butanol at which growth was almost completely inhibited [4] | tolerance of 1-butanol concentration (up to) ([1]; JH007) | 1-butanol tolerance (survival rate) relative to control (E. coli JH007) [fold] | concentration of 1-butanol at which growth was inhibited (wild type E. coli) [%]
CCCO [1-propanol] | at least 6 % (v/v) | – | – | – | – | – | – | –
CCO [ethanol] | – | at least 12 % (v/v) | up to 12 % (v/v) | at least 10 % (v/v) | – | – | – | –
1-butanol | at least 5 % (v/v) | at least 2 % (v/v) | – | at least 2.5 % (v/v) | ≥ 1.5 % (v/v) | up to 5 % (v/v) | 5.5 | 1
CC(C)CO [isobutanol] | at least 3.5 % (v/v) | at least 3.5 % (v/v) | – | at least 4 % (v/v) | – | – | – | –
